Reference: ChEMBL document CHEMBL3881530, “Compounds and methods for inhibiting NHE-mediated antiport in the treatment of disorders associated with fluid retention or salt overload and gastrointestinal tract disorders” (2013)
One block for each molecule: values may come before it.

Experiments:
[1] = target: Sodium/hydrogen exchanger 1 (Homo sapiens, UniProt P19634); assay: Inhibition of NHE-1 (unknown origin)
[2] = target: T1, Sodium/hydrogen exchanger 2 (Homo sapiens, UniProt Q9UBY0); assay: Inhibition of NHE-2 (unknown origin)
T1 sequence (Q9UBY0 whole entry): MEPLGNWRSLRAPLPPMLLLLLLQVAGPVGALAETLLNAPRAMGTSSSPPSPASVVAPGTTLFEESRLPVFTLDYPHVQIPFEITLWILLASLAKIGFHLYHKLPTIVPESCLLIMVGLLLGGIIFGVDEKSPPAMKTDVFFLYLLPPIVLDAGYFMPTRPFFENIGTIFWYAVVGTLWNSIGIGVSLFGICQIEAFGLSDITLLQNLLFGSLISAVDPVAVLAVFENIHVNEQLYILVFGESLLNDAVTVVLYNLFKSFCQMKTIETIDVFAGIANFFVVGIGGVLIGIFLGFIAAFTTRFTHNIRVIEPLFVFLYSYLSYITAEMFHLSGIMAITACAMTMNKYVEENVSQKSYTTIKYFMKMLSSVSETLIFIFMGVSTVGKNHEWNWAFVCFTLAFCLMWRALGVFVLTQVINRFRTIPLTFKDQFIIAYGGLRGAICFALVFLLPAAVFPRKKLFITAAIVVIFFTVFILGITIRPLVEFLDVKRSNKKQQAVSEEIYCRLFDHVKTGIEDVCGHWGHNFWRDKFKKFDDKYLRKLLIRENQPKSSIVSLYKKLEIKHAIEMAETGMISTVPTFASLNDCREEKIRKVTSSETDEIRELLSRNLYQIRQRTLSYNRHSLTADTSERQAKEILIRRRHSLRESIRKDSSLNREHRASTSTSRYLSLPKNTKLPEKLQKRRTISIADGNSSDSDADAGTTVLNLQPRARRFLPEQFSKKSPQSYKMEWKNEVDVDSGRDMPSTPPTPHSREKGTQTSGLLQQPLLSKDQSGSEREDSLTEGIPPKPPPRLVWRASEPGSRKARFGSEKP

[3] = target: T2, Sodium/hydrogen exchanger 5 (Homo sapiens, UniProt Q14940); assay: Inhibition of NHE-5 (unknown origin)
T2 sequence (Q14940 whole entry): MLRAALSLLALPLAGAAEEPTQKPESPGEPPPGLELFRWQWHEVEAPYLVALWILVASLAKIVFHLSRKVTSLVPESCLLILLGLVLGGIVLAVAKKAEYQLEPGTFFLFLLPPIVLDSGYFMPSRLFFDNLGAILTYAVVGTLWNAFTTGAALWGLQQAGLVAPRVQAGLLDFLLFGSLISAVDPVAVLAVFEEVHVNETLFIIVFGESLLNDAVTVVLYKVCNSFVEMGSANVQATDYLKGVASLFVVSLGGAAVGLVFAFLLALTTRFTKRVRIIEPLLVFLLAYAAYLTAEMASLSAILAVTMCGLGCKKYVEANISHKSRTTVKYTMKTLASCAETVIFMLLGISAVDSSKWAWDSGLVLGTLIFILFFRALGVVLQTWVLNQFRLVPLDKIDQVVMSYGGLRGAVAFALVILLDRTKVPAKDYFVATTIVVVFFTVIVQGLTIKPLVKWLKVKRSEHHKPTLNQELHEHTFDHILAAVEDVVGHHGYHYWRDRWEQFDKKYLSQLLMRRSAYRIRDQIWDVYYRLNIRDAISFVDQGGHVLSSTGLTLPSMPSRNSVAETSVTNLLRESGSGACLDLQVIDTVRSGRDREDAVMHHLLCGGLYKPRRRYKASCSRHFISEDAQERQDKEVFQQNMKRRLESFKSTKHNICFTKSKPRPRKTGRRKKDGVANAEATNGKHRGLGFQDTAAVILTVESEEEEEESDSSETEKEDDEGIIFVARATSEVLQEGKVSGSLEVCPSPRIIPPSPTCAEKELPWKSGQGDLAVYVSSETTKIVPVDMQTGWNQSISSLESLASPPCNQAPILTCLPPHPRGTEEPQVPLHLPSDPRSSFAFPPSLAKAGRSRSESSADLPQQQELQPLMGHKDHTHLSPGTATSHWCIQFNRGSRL

[4] = target: T3, Sodium/hydrogen exchanger 3 (Homo sapiens, UniProt P48764); assay: Inhibition of NHE-3 (unknown origin)
T3 sequence (P48764 whole entry): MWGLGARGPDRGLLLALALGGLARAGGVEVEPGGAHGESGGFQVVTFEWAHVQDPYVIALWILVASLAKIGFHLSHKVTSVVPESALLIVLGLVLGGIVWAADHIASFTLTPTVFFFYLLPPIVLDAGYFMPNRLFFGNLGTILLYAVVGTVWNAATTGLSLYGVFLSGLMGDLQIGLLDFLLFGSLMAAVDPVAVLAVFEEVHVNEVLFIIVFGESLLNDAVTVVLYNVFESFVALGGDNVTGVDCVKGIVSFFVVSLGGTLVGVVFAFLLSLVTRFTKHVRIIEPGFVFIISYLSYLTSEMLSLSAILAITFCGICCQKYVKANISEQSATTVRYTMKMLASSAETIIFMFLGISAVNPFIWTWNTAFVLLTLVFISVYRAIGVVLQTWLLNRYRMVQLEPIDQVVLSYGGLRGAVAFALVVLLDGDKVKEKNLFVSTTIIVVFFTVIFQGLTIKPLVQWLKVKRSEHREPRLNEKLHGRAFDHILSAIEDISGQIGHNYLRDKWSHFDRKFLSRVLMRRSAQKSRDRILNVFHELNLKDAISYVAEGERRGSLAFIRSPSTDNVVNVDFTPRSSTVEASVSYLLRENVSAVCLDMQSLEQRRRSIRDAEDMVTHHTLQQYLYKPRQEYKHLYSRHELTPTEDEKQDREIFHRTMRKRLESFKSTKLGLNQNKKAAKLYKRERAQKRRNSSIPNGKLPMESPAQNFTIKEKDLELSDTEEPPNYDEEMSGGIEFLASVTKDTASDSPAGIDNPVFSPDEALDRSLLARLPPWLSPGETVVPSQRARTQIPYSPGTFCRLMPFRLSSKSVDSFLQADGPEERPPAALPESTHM

[5] = Cmax in Sprague-Dawley rat at 1.6 mg/kg administered via oral gavage measured up to 4 hrs by LC/MS/MS analysis; type: ADME, organism-based; set-up: dose 1.6 mg/kg, route oral; conditions: in vivo
[6] = AUC in Sprague-Dawley rat at 1.6 mg/kg administered via oral gavage measured up to 4 hrs by LC/MS/MS analysis; type: ADME, organism-based; set-up: time < 4 hr, dose 1.6 mg/kg, route oral; conditions: in vivo
[7] = Cmax in Sprague-Dawley rat at 4.6 mg/kg administered via oral gavage measured up to 4 hrs by LC/MS/MS analysis; type: ADME, organism-based; set-up: dose 4.6 mg/kg, route oral; conditions: in vivo
[8] = AUC in Sprague-Dawley rat at 4.6 mg/kg administered via oral gavage measured up to 4 hrs by LC/MS/MS analysis; type: ADME, organism-based; set-up: time < 4 hr, dose 4.6 mg/kg, route oral; conditions: in vivo
Rattus norvegicus [9] = assay: Increase in fecal water content in Sprague-Dawley rat administered via oral gavage measured after 16 hrs; type: functional
[10] = Cmax in Sprague-Dawley rat at 2.2 mg/kg administered via oral gavage measured up to 4 hrs by LC/MS/MS analysis; type: ADME, organism-based; set-up: dose 2.2 mg/kg, route oral; conditions: in vivo
[11] = AUC in Sprague-Dawley rat at 2.2 mg/kg administered via oral gavage measured up to 4 hrs by LC/MS/MS analysis; type: ADME, organism-based; set-up: time < 4 hr, dose 2.2 mg/kg, route oral; conditions: in vivo
[12] = Cmax in Sprague-Dawley rat at 28 mg/kg administered via oral gavage measured up to 4 hrs by LC/MS/MS analysis; type: ADME, organism-based; set-up: dose 28 mg/kg, route oral; conditions: in vivo
[13] = AUC in Sprague-Dawley rat at 28 mg/kg administered via oral gavage measured up to 4 hrs by LC/MS/MS analysis; type: ADME, organism-based; set-up: time < 4 hr, dose 28 mg/kg, route oral; conditions: in vivo
[14] = Apparent permeability of the compound from apical to basolateral side at pH 7.4 after 3 hrs by PAMPA; type: ADME
[15] = Cmax in Sprague-Dawley rat at 2.4 mg/kg administered via oral gavage measured up to 4 hrs by LC/MS/MS analysis; type: ADME, organism-based; set-up: dose 2.4 mg/kg, route oral; conditions: in vivo
Rattus norvegicus [16] = assay: Effect on fecal water content in Sprague-Dawley rat at 3 mg/kg administered via oral gavage measured after 16 hrs relative to control; type: functional
[17] = Drug recovery in Sprague-Dawley rat feces at 0.1 mg/kg administered via oral gavage measured after 72 hrs by LC/MS/MS analysis; type: ADME, organism-based; conditions: faeces, read-out: Drug recovery

Chain of Sodium/hydrogen exchanger 1 (P19634 whole entry): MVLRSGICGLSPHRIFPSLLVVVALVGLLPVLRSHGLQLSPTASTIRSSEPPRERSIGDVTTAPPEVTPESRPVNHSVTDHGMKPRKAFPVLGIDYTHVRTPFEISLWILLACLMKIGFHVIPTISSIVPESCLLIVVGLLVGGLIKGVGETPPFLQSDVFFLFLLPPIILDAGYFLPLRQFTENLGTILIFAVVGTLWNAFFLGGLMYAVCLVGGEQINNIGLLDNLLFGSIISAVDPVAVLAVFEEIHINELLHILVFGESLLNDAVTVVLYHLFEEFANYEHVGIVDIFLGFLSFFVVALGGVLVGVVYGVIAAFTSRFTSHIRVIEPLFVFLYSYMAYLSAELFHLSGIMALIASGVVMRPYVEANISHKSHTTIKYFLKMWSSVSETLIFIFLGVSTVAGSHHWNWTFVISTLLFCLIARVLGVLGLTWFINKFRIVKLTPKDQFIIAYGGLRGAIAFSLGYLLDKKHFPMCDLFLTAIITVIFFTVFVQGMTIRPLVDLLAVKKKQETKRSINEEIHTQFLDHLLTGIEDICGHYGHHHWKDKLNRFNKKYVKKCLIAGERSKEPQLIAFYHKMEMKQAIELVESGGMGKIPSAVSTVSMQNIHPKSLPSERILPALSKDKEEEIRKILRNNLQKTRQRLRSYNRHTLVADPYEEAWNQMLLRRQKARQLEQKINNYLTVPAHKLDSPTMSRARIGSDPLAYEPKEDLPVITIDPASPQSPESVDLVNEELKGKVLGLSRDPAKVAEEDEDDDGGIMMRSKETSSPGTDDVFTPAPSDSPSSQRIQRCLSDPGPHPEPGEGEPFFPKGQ

Structure (SMILES): CC(C)c1ccc(C(=O)NC(=N)N)cc1S(C)(=O)=O [CARIPORIDE]
- IC50 [1]: 0.03 to 3.4 µM
- IC50 [2]: 4.3 to 62 µM
- IC50 [3]: > 30 µM
- IC50 [4]: 1 to 100 µM

Structure (SMILES): C/C(=C\c1cc(F)c(Oc2ccc(S(=O)(=O)NCc3ccc(CP(=O)(O)O)cc3)cc2)c(F)c1)C(=O)N=C(N)N
- Cmax [7]: 14 ng/mL
- AUC at 4 h [8]: 9 ng·h/mL

Structure (SMILES): CN1Cc2c(Cl)cc(Cl)cc2C(c2cccc(S(=O)(=O)NCCOCCOCCOCCNC(=O)C(O)C(O)C(=O)NCCOCCOCCOCCNS(=O)(=O)c3cccc(C4CN(C)Cc5c(Cl)cc(Cl)cc54)c3)c2)C1 (stereo not drawn)
- Activity (Rattus norvegicus [9]): Dose-dependent effect

Structure (SMILES): Cc1cc(-n2cccc2)c(S(C)(=O)=O)cc1C(=O)NC(=N)N [ENIPORIDE]
- IC50 [1]: 0.005 to 0.38 µM
- IC50 [2]: 2 to 17 µM
- IC50 [3]: > 30 µM
- IC50 [4]: 100 to 460 µM

Structure (SMILES): NC(N)=Nc1nc(-c2cccc(N3CCN(CCCC(=O)O)CC3)c2)c2cc(Cl)ccc2n1.O=C(O)C(F)(F)F
- Papp at 3 h [14]: 0.4 ×10⁻⁶ cm/s

Structure (SMILES): N=C(N)N1CCN(c2cccc(-c3nc(N=C(N)N)nc4ccc(Cl)cc34)c2)CC1
- Cmax [15]: 2 ng/mL

The next lines start with results.

- Cmax [5]: 71 ng/mL
- AUC at 4 h [6]: 159 ng·h/mL
Structure (SMILES): CN1Cc2c(Cl)cc(Cl)cc2C(c2cccc(S(=O)(=O)NCCN(CCNS(=O)(=O)c3cccc(C4CN(C)Cc5c(Cl)cc(Cl)cc54)c3)CCNS(=O)(=O)c3cccc(C4CN(C)Cc5c(Cl)cc(Cl)cc54)c3)c2)C1 (stereo not drawn)

- Cmax [10]: 2.4 ng/mL
- AUC at 4 h [11]: 5 ng·h/mL
Structure (SMILES): CN1Cc2c(Cl)cc(Cl)cc2C(c2cccc(NC(=O)N[C@@H](CC(=O)O)C(=O)O)c2)C1 (stereo partly drawn)

- Cmax [12]: 23 ng/mL
- AUC at 4 h [13]: 19 ng·h/mL
Structure (SMILES): CN1Cc2c(Cl)cc(Cl)cc2C(c2cccc(NCCOCCOCCOCCNC(=O)C(O)C(O)C(=O)NCCOCCOCCOCCNc3cccc(C4CN(C)Cc5c(Cl)cc(Cl)cc54)c3)c2)C1 (stereo not drawn)

- Cmax [12]: 8 ng/mL
- AUC at 4 h [13]: 6 ng·h/mL
Structure (SMILES): CN1Cc2c(Cl)cc(Cl)cc2C(c2ccc(S(=O)(=O)NCCOCCOCCNC(=O)C(=O)NCCOCCOCCNS(=O)(=O)c3ccc(C4CN(C)Cc5c(Cl)cc(Cl)cc54)cc3)cc2)C1 (stereo not drawn)

- dose excreted at 72 h [17]: 75.8 to 104%
Structure (SMILES): CN1Cc2c(Cl)cc(Cl)cc2[C@H](c2cccc(S(=O)(=O)NCCOCCOCCNC(=O)Nc3ccc(NC(=O)NCCOCCOCCNS(=O)(=O)c4cccc([C@@H]5CN(C)Cc6c(Cl)cc(Cl)cc65)c4)cc3)c2)C1.Cl.Cl (single isomer, unassigned)
- Activity (Rattus norvegicus [16]): 130%
